We go through 37 molecules from patent US8853392B2, “Benzamide mGluR5 positive allosteric modulators and methods of making and using same” (Vanderbilt University, priority 2007, dated 2014).

The structures appear in SMILES notation.

In the first experiment the target is T1, rat mGluR5 (Rattus norvegicus, UniProt P31424).
T1 construct: expressed in transfected cells; host or cells: human embryonic kidney (HEK) cells
T1 sequence (P31424 21-1203): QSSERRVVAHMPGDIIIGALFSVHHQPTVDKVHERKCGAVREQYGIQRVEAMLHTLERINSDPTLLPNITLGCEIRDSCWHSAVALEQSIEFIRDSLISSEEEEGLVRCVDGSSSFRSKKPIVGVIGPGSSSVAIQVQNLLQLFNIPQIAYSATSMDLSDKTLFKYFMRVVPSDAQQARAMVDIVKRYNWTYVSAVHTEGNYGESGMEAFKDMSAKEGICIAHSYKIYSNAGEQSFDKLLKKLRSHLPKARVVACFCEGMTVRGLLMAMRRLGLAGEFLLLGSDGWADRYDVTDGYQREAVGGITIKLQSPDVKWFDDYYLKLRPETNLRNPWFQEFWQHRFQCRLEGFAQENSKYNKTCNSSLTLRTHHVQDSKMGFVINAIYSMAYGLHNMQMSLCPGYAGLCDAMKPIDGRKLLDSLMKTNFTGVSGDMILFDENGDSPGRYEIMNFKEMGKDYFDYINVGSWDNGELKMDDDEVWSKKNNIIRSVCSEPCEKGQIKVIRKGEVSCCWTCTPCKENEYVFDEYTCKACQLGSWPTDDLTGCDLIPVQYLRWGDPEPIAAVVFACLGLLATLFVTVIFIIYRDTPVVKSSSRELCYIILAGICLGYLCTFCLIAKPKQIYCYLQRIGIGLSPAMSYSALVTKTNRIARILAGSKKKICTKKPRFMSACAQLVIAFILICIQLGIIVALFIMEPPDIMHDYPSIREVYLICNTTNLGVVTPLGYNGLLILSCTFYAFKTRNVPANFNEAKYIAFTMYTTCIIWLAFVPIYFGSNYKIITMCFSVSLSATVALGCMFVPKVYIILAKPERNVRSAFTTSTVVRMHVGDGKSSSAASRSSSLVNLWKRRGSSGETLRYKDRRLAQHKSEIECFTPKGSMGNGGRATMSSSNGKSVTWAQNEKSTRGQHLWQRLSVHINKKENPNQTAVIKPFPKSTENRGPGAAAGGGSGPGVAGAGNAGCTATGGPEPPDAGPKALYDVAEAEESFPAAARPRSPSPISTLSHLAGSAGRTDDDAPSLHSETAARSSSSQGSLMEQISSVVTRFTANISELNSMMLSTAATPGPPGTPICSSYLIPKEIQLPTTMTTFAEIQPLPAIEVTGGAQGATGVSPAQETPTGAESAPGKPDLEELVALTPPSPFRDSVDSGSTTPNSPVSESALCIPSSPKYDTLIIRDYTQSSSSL
The experiment in a line: potentiation of mGluR5 response to glutamate, Ca2+ fluorescence (FDSS) in HEK cells transfected with rat mGluR5. The class given is cell-based. The settings on record: EC50, Table 1, EC50 for potentiating the mGluR5 receptor; unit inferred. The procedure:
Human embryonic kidney (HEK) cells transfected with rat mGluR5 were plated in clear bottom assay plates for assay in a Functional Drug Screening System (FDSS). The cells were loaded with a Ca^2+-sensitive fluorescent dye (e.g., Fluo-4), and the plates were washed and placed in the FDSS instrument. After establishment of a fluorescence baseline for twelve seconds, the compounds of the present invention were added to the cells, and the response in cells was measured. Five minutes later, an mGluR5 agonist (e.g., glutamate, 3,5-dihydroxyphenylglycine, or quisqualate) was added to the cells, and the response of the cells was measured. Potentiation of the agonist response of mGluR5 by the compounds in the present invention was observed as an increase in response to non-maximal concentrations of agonist (here, glutamate) in the presence of compound compared to the response to agonist in the absence of compound.
The above described assay operated in two modes. In the first mode, a range of concentrations of the present compounds were added to cells, followed by a single fixed concentration of agonist. If a compound acted as a potentiator, an EC50 value for potentiation and a maximum extent of potentiation by the compound at this concentration of agonist was determined by non-linear curve fitting. In the second mode, several fixed concentrations of the present compounds were added to various wells on a plate, followed by a range of concentrations of agonist for each concentration of present compound; the EC50 values for the agonist at each concentration of compound were determined by non-linear curve fitting. A decrease in the EC50 value of the agonist with increasing concentrations of the present compounds (a leftward shift of the agonist concentration-response curve) is an indication of the degree of mGluR5 potentiation at a given concentration of the present compound. An increase in the EC50 value of the agonist with increasing concentrations of the present compounds (a rightward shift of the agonist concentration-response curve) is an indication of the degree of mGluR5 antagonism at a given concentration of the present compound. The second mode also indicates whether the present compounds also affect the maximum response to mGluR5 to agonists.
Human embryonic kidney (HEK) cells transfected with rat mGluR5 were plated in clear-bottomed, poly-D-lysine-coated assay plates in glutamate-glutamine-free medium growth and incubated overnight at 37° C. in 5% CO2. The following day, cells were loaded with 2 μM calcium indicator dye, fluo-4 AM, for 1 h at 37° C. Dye was removed and replaced with assay buffer containing 1× Hanks balanced salt solution (Invitrogen, Carlsbad, Calif.), 20 mM HEPES, and 2.5 mM probenecid, pH 7.4. Cell plates were then loaded into the Functional Drug Screening System 6000 (FDSS 6000, Hamamatsu, Japan). After establishment of a fluorescence baseline for twelve seconds, the compounds of the present invention were added to the cells, and the response in cells was measured. Five minutes later, an mGluR5 agonist (e.g., glutamate, 3,5-dihydroxyphenylglycine, or quisqualate) was added to the cells, and the response of the cells was measured during a 1 minute incubation with agonists. Typically, the effect of test compounds of the present invention was on an EC20 concentration of glutamate was measured. All test compounds were dissolved and diluted in 100% DMSO and then serially diluted into assay buffer for a 2.5× stock in 0.25% DMSO; stock compounds were then added to the assay for a final DMSO concentration of 0.1%. Calcium fluorescence measures were recorded as fold over basal fluorescence; raw data was then normalized to the maximal response to agonist. Potentiation of the agonist response of mGluR5 by the compounds in the present invention was observed as an increase in response to non-maximal concentrations of agonist (here, glutamate) in the presence of compound compared to the response to agonist in the absence of compound. […]
As for `CC(=O)C1(c2ccccc2)CCN(C(=O)c2ccc(C#Cc3ccccc3)cc2)CC1` [1-(4-phenyl-1-(4-(phenylethynyl)benzoyl)piperidin-4-yl)ethanone], the EC50 is 1.25 µM.

On to `N#CC1(c2ccccc2)CCN(C(=O)c2ccc(C#Cc3ccccc3)cc2)CC1` [4-phenyl-1-(4-(phenylethynyl)benzoyl)piperidine-4-carbonitrile], for which the EC50 amounted to 1.14 µM.

The experiment is the same for the next values; noted with them: Table 1, EC50 for potentiating the mGluR5 receptor; unit inferred; read-out: EC50.
`N#Cc1ccccc1N1CCN(C(=O)c2ccc(C#Cc3ccccc3)cc2)CC1`: the EC50 was 4.2 µM.

As for `O=C(c1ccc(C#Cc2ccccc2)cc1)N1CCC(n2c(=O)[nH]c3ccccc32)CC1` [1-(1-(4-(phenylethynyl)benzoyl)piperidin-4-yl)-1H-benzo[d]imidazol-2(3H)-one], the EC50 amounted to 1.47 µM.

In the case of `COCCCNC(=O)c1ccc(-c2nc(-c3ccc(F)cc3)no2)cc1` [4-(3-(4-fluorophenyl)-1,2,4-oxadiazol-5-yl)-N-(3-methoxypropyl)benzamide], the concentration giving a half-maximal response (EC50) came out at 1.12 µM.

Take `CCCNC(=O)c1ccc(-c2nc(-c3ccc(F)cc3)no2)cc1` [4-(3-(4-fluorophenyl)-1,2,4-oxadiazol-5-yl)-N-propylbenzamide]: the EC50 came to 2.03 µM.

In the case of `CCCNC(=O)c1ccc(-c2nc(-c3ccccc3)no2)cc1` [4-(3-phenyl-1,2,4-oxadiazol-5-yl)-N-propylbenzamide], the EC50 came to 2.27 µM.

Take `O=C(NCCN1CCCCC1)c1ccc(C#Cc2ccccc2)cc1` [4-(phenylethynyl)-N-(2-(piperidin-1-yl)ethyl)benzamide]: the concentration giving a half-maximal response (EC50) amounted to 1.79 µM.

As to `CCCNC(=O)c1ccc(C#Cc2ccccc2)cc1` [4-(phenylethynyl)-N-propylbenzamide], the EC50 is 0.0147 µM.

For the molecule `O=C(c1ccc(C#Cc2ccccc2)cc1)n1c(=O)n(C2CCNCC2)c2cc(Cl)ccc21` [5-chloro-1-(4-(phenylethynyl)benzoyl)-3-(piperidin-4-yl)-1H-benzo[d]imidazol-2(3H)-one], the concentration giving a half-maximal response (EC50) is 3.72 µM.

For `CC1CN(C(=O)c2ccc(C#Cc3ccccc3)cc2)CC(C)O1` (stereo not shown) [(2,6-dimethylmorpholino)(4-(phenylethynyl)phenyl)methanone], the EC50 was determined as 0.0889 µM.

For `O=C(c1ccc(C#Cc2ccccc2)cc1)N1CCCC(O)C1` (stereo not shown) [(3-hydroxypiperidin-1-yl)(4-(phenylethynyl)phenyl)methanone], the EC50 worked out at 0.134 µM.

In the case of `O=C(c1ccc(C#Cc2ccccc2)cc1)N1CCN(c2ccccc2F)CC1` [(4-(2-fluorophenyl)piperazin-1-yl)(4-(phenylethynyl)phenyl)methanone], the EC50 was 5.14 µM.

Turning to `COCCNC1CCN(C(=O)c2ccc(C#Cc3ccccc3)cc2)CC1` [(4-(2-methoxyethylamino)piperidin-1-yl)(4-(phenylethynyl)phenyl)methanone], the EC50 stood at 1.19 µM.

With `COc1ccccc1N1CCN(C(=O)c2ccc(C#Cc3ccccc3)cc2)CC1` [(4-(2-methoxyphenyl)piperazin-1-yl)(4-(phenylethynyl)phenyl)methanone], the EC50 was found to be 2.1 µM.

With `O=C(c1ccc(C#Cc2ccccc2)cc1)N1CCC(NCCN2CCOCC2)CC1` [(4-(2-morpholinoethylamino)piperidin-1-yl)(4-(phenylethynyl)phenyl)methanone], the EC50 was found to be 0.383 µM.

Regarding `O=C(c1ccc(-c2nc(-c3ccc(F)cc3)no2)cc1)N1CCN(c2ccncc2)CC1` [(4-(3-(4-fluorophenyl)-1,2,4-oxadiazol-5-yl)phenyl)(4-(pyridin-4-yl)piperazin-1-yl)methanone], the EC50 turned out to be 4.21 µM.

For the molecule `O=C(c1ccc(C#Cc2ccccc2)cc1)N1CCC(O)(c2ccc(Cl)cc2C(F)(F)F)CC1` [(4-(4-chloro-2-(trifluoromethyl)phenyl)-4-hydroxypiperidin-1-yl)(4-(phenylethynyl)phenyl)methanone], the EC50 was found to be 0.477 µM.

`O=C(c1ccc(C#Cc2ccccc2)cc1)N1CCC(O)(c2ccc(Cl)cc2)CC1` [(4-(4-chlorophenyl)-4-hydroxypiperidin-1-yl)(4-(phenylethynyl)phenyl)methanone]: the EC50 came out at 6.46 µM.

Regarding `CN1CCN(C2CCN(C(=O)c3ccc(C#Cc4ccccc4)cc3)CC2)CC1` [(4-(4-methylpiperazin-1-yl)piperidin-1-yl)(4-(phenylethynyl)phenyl)methanone], the EC50 turned out to be 0.132 µM.

Turning to `O=C(c1ccc(C#Cc2ccccc2)cc1)N1CCC(N2CCC2)CC1` [(4-(azetidin-1-yl)piperidin-1-yl)(4-(phenylethynyl)phenyl)methanone], the EC50 is 1.11 µM.

As to `O=C(c1ccc(C#Cc2ccccc2)cc1)N1CCC(NC2CCC2)CC1` [(4-(cyclobutylamino)piperidin-1-yl)(4-(phenylethynyl)phenyl)methanone], the EC50 is 0.212 µM.

With `O=C(c1ccc(C#Cc2ccccc2)cc1)N1CCC(NC2CCCCC2)CC1` [(4-(cyclohexylamino)piperidin-1-yl)(4-(phenylethynyl)phenyl)methanone], the EC50 came out at 0.078 µM.

`O=C(c1ccc(C#Cc2ccccc2)cc1)N1CCC(NCC2CC2)CC1` [(4-(cyclopropylmethylamino)piperidin-1-yl)(4-(phenylethynyl)phenyl)methanone]: the concentration giving a half-maximal response (EC50) amounted to 2.79 µM.

For the molecule `CCCC(C)NC1CCN(C(=O)c2ccc(C#Cc3ccccc3)cc2)CC1` (stereo not shown) [(4-(pentan-2-ylamino)piperidin-1-yl)(4-(phenylethynyl)phenyl)methanone], the EC50 was 0.0595 µM.

With `O=C(c1ccc(C#Cc2ccccc2)cc1)N1CCC(N2CCN(c3ccncc3)CC2)CC1` [(4-(phenylethynyl)phenyl)(4-(4-(pyridin-4-yl)piperazin-1-yl)piperidin-1-yl)methanone], the EC50 is 0.113 µM.

Turning to `O=C(c1ccc(C#Cc2ccccc2)cc1)N1CCN(c2ccccn2)CC1` [(4-(phenylethynyl)phenyl)(4-(pyridin-2-yl)piperazin-1-yl)methanone], the EC50 was found to be 2.92 µM.

In the case of `O=C(c1ccc(C#Cc2ccccc2)cc1)N1CCN(c2ccncc2)CC1` [(4-(phenylethynyl)phenyl)(4-(pyridin-4-yl)piperazin-1-yl)methanone], the EC50 came to 3.68 µM.

Take `O=C(c1ccc(C#Cc2ccccc2)cc1)N1CCC(N2CCCC2)CC1` [(4-(phenylethynyl)phenyl)(4-(pyrrolidin-1-yl)piperidin-1-yl)methanone]: the EC50 was 3.73 µM.

`O=C(c1ccc(C#Cc2ccccc2)cc1)N1CCN(c2ccccc2)CC1` [(4-(phenylethynyl)phenyl)(4-phenylpiperazin-1-yl)methanone]: the EC50 is 2.06 µM.

For the molecule `O=C(c1ccc(C#Cc2ccccc2)cc1)N1CCNCC1` [(4-(phenylethynyl)phenyl)(piperazin-1-yl)methanone], the EC50 turned out to be 4.79 µM.

As for `O=C(c1ccc(C#Cc2ccccc2)cc1)N1CCC(O)(c2ccccc2)CC1` [(4-hydroxy-4-phenylpiperidin-1-yl)(4-(phenylethynyl)phenyl)methanone], the EC50 was 3.66 µM.

`CC(C)N1CCN(C(=O)c2ccc(C#Cc3ccccc3)cc2)CC1` [(4-isopropylpiperazin-1-yl)(4-(phenylethynyl)phenyl)methanone]: the EC50 was 1.19 µM.

For `CN1CCN(C(=O)c2ccc(C#Cc3ccccc3)cc2)CC1` [(4-methylpiperazin-1-yl)(4-(phenylethynyl)phenyl)methanone], the EC50 is 0.166 µM.

As for `O=C(c1ccc(/C=C/c2ccccc2)cc1)N1CCC(O)CC1` [(E)-(4-hydroxypiperidin-1-yl)(4-styrylphenyl)methanone], the EC50 was found to be 1.97 µM.

Regarding `C[C@@H](CNC(=O)c1ccc(C#Cc2ccccc2)cc1)c1ccccc1` [(R)-4-(phenylethynyl)-N-(2-phenylpropyl)benzamide], the EC50 was determined as 0.0349 µM.

Take `C[C@H](NC1CCN(C(=O)c2ccc(C#Cc3ccccc3)cc2)CC1)C1CCCCC1` [(S)-(4-(1-cyclohexylethylamino)piperidin-1-yl)(4-(phenylethynyl)phenyl)methanone]: the concentration giving a half-maximal response (EC50) amounted to 0.129 µM.
